Source: US12048706B2, “Methods of treating epilepsy or status epilepticus” (Sage Therapeutics, Inc., priority 2012, dated 2024)
Like-named read-outs stand apart in the source and are kept apart here.

Columns and labels:
patient in SRSE = assay: Treatment of one patient in super-refractory status epilepticus (SRSE) with allopregnanolone infusion; type: in vivo, human
Source text: A physician at the Massachusetts General Hospital, Boston, Mass. treated one patient in SRSE with allopregnanolone in a hydroxyl-propyl beta cyclodextrin formulation. The patient was a previously-healthy, person, college graduate who was started on allopregnanolone on their 92nd day of SRSE.
During their hospital course, the patient had previously been treated with propofol, midazolam, lacosamide, phenytoin, phenobarbital, ketamine, clonazepam, levetiracetam, valproate, pentobarbital, topiramate, steroids, pyridoxine, coq-10, lidocaine, electroconvulsive therapy (ECT), bromides, hypothermia, a ketogenic diet, and acupuncture.
(§1) At the time that allopregnanolone was started, the patient was still in a pentobarbital-induced coma as well as receiving lacosamide, phenobarbital, clonazepam, and levetiracetam. The patient was started on allopregnanolone at a continuous infusion rate of 86 μg/kg/h for 5 days, after which the allopregnanolone was rapidly tapered and discontinued over a 24-hour period. Plasma samples were drawn at 5 h, 29 h, 53 h, 77 h, 101 h, 125 h, 149 h, and 173 h and are shown on FIG. 2. The plasma level rose and by Day 2 had achieved the target level of 150 nmoles/L. The pentobarbital was tapered and discontinued over the first 36 hours of allopregnanolone therapy. […] They continued to improve and was conversant, making jokes, and in a rehabilitation facility as of April 2013.

[1] = Plasma exposure of allopregnanolone from human SE study; type: in vivo; conditions: by Day 2; continuous IV infusion 86 μg/kg/h; single SRSE patient
Experimental: FIG. 2. Plasma exposure of allopregnanolone from human SE study. Plasma concentration profile over time of allopregnanolone in a single patient. The patient was dosed allopregnanolone (ALLO) at 1.5 mg/mL in 6% hydroxypropyl-β-cyclodextrin in 0.9% sodium chloride intravenously for 5 days (120 h). The infusion rate was 86 μg/kg/h. The patient was dosed 5.6 mg/h of allopregnanolone at 3.8 mL/h. Plasma concentration was analyzed 2 hours prior to the start of infusion and then 52, 76, 100, 124, and 148 hours post-infusion.
as §1

[2] = test system: patients with status epilepticus; conditions: cited from earlier work

CC(=O)[C@H]1CC[C@H]2[C@@H]3CC[C@H]4C[C@H](O)CC[C@]4(C)[C@H]3CC[C@]12C [allopregnanolone, 3 alpha-hydroxy-5 alpha-pregnan-20-one]
adverse events attributed to allopregnanolone (patient in SRSE; 86 μg/kg/h for 5 days, then taper over 24 hours): no adverse events
EEG (patient in SRSE; 36-hour time point, patient entirely weaned from pentobarbital, infusion 86 μg/kg/h): had begun to normalize
clinical state of the patient (patient in SRSE; at 72 hours, infusion 86 μg/kg/h): awake and followed simple midline commands
plasma level [1]: 150 nM

O=C1Nc2ccc(Cl)cc2C(c2ccccc2Cl)=NC1O (stereo not drawn) [lorazepam]
patients who did not respond to first line treatment ([2]; intravenous (IV) treatment): 36.6%

Cc1ncc2n1-c1ccc(Cl)cc1C(c1ccccc1F)=NC2 [midazolam]
patients who did not respond to first line treatment ([2]; intramuscular (IM) treatment): 26.6%
